Tests used:
Format in all cases: in vivo
[1] = test system: Digitaria horizontalis (DIGHO); experiment: B3 drilled field trial Brazil, post-emergence, DIGHO; details: 28 days after application
Method: (§1) Seeds of a variety of test species were used in drilled field trials to look at the control of important weed species present in corn crops as well as the effect on soybean (a volunteer crop in corn). Trials were carried out in Brazil in the summer season and the second season.
(§2) Plot size was 10-15 m^2, and two replicates were carried out per treatment. Plants were treated post-emergence between the 2 and 4 leaf stage. Species tested were Amaranthus retroflexus (AMARE), Ipomoea grandifolia (IAQGR), Digitaria horizontalis (DIGHO), Bidens pilosa (BIDPI), Eleusine indica (ELEIN), Brachiaria decumbens (BRADC), Centrus echinatus (CCHEC), Euphorbia heterophylla (EPPHL), Brachiaria plantaginea (BRAPL) and Glycine max (GLXMA; soybean). Fungicides and insecticides were used as necessary for plant health. The test was evaluated at 28 days after application with 100=total damage to plant and 0=no damage to plant.
(§3) Expected results were calculated using the Colby Formula.

[2] = test system: Glycine max (GLXMA; soybean); experiment: B3 drilled field trial Brazil, post-emergence, soybean; details: 28 days after application
Method: as §1, §2, §3

[3] = test system: soybean (Glycine max GLXMA); experiment: B2 drilled field trial Brazil, post-emergence, soybean; details: 100=total damage, 0=no damage; for GLXMA 9DAA Observed: 9 days after application; for GLXMA 37 DAA Observed: 37 days after application
Method: (§4) Seeds of a variety of test species were used in drilled field trials to look at the control of important weed species present in corn crops as well as the effect on soybean (a volunteer crop in corn). Trials were carried out in Brazil in the summer season.
(§5) Plot size was 10-12 m^2, and two replicates were carried out per treatment. Plants were treated post-emergence at the 4 leaf stage. Fungicides and insecticides were used as necessary for plant health. The test was evaluated at 7 and 30 days after application (Amaranthus viridis (AMAVI), Bidens pilosa (BIDPI), Euphorbia heterophylla (EPPHL)) and 9 and 37 days after application (Brachiaria plantaginea (BRAPL) and soybean (Glycine max GLXMA) with 100=total damage to plant and 0=no damage to plant.
as §3

[4] = test system: Euphorbia heterophylla (EPPHL); experiment: B2 drilled field trial Brazil, post-emergence, EPPHL; details: 100=total damage, 0=no damage; for EPPHL 7DAA Observed: 7 days after application; for EPPHL 30 DAA Observed: 30 days after application
Method: as §4, §5, §3

Bidens pilosa (BIDPI) = experiment: B3 drilled field trial Brazil, post-emergence, BIDPI; details: 28 days after application
Method: as §1, §2, §3

[5] = test system: Centrus echinatus (CCHEC); experiment: B3 drilled field trial Brazil, post-emergence, CCHEC; details: 28 days after application
Method: as §1, §2, §3

[6] = test system: Amaranthus viridis (AMAVI); experiment: B2 drilled field trial Brazil, post-emergence, AMAVI; details: 100=total damage, 0=no damage; for AMAVI 7DAA Observed: 7 days after application; for AMAVI 30 DAA Observed: 30 days after application
Method: as §4, §5, §3

Eleusine indica (ELEIN) = experiment: B3 drilled field trial Brazil, post-emergence, ELEIN; details: Second season, 50 g ai/ha, 28 days after application
Method: as §1, §2, §3

## CCOC1C(O)N(c2cc(C(C)(C)C)on2)C(=O)N1C (stereo not drawn) [Compound 1.4]
[1]; Second season, 50 g ai/ha
  Observed damage (100=total damage to plant, 0=no damage): 0
[1]; Second season, 75 g ai/ha
  Observed damage (100=total damage to plant, 0=no damage): 0
[1]; Second season, 100 g ai/ha
  Observed damage (100=total damage to plant, 0=no damage): 0
[1]; Second season, 150 g ai/ha
  Observed damage (100=total damage to plant, 0=no damage): 0
[1]; Summer season, 50 g ai/ha
  Observed damage (100=total damage to plant, 0=no damage): 23
[1]; Summer season, 75 g ai/ha
  Observed damage (100=total damage to plant, 0=no damage): 45
[1]; Summer season, 100 g ai/ha
  Observed damage (100=total damage to plant, 0=no damage): 45
[1]; Summer season, 150 g ai/ha
  Observed damage (100=total damage to plant, 0=no damage): 69
[2]; Second season, 50 g ai/ha
  Observed damage (100=total damage to plant, 0=no damage): 44
[2]; Second season, 75 g ai/ha
  Observed damage (100=total damage to plant, 0=no damage): 56
[2]; Second season, 100 g ai/ha
  Observed damage (100=total damage to plant, 0=no damage): 79
[2]; Second season, 150 g ai/ha
  Observed damage (100=total damage to plant, 0=no damage): 86
[2]; Summer season, 50 g ai/ha
  Observed damage (100=total damage to plant, 0=no damage): 44
[2]; Summer season, 75 g ai/ha
  Observed damage (100=total damage to plant, 0=no damage): 49
[2]; Summer season, 100 g ai/ha
  Observed damage (100=total damage to plant, 0=no damage): 60
[2]; Summer season, 150 g ai/ha
  Observed damage (100=total damage to plant, 0=no damage): 83
[3]; 75 g ai/ha
  GLXMA 9DAA Observed: 63
  GLXMA 37 DAA Observed: 45
[3]; 100 g ai/ha
  GLXMA 9DAA Observed: 55
  GLXMA 37 DAA Observed: 0
[3]; 150 g ai/ha
  GLXMA 9DAA Observed: 73
  GLXMA 37 DAA Observed: 30
[4]; 75 g ai/ha
  EPPHL 7DAA Observed: 25
  EPPHL 30 DAA Observed: 18
[4]; 100 g ai/ha
  EPPHL 7DAA Observed: 30
  EPPHL 30 DAA Observed: 25
[4]; 150 g ai/ha
  EPPHL 7DAA Observed: 48
  EPPHL 30 DAA Observed: 25
Bidens pilosa (BIDPI); Second season, 50 g ai/ha
  Observed damage (100=total damage to plant, 0=no damage): 46
Bidens pilosa (BIDPI); Second season, 75 g ai/ha
  Observed damage (100=total damage to plant, 0=no damage): 46
Bidens pilosa (BIDPI); Second season, 100 g ai/ha
  Observed damage (100=total damage to plant, 0=no damage): 48
Bidens pilosa (BIDPI); Second season, 150 g ai/ha
  Observed damage (100=total damage to plant, 0=no damage): 60
Bidens pilosa (BIDPI); Summer season, 50 g ai/ha
  Observed damage (100=total damage to plant, 0=no damage): 18
Bidens pilosa (BIDPI); Summer season, 75 g ai/ha
  Observed damage (100=total damage to plant, 0=no damage): 38
Bidens pilosa (BIDPI); Summer season, 100 g ai/ha
  Observed damage (100=total damage to plant, 0=no damage): 28
Bidens pilosa (BIDPI); Summer season, 150 g ai/ha
  Observed damage (100=total damage to plant, 0=no damage): 47
[5]; Second season, 50 g ai/ha
  Observed damage (100=total damage to plant, 0=no damage): 0
[5]; Second season, 75 g ai/ha
  Observed damage (100=total damage to plant, 0=no damage): 0
[5]; Second season, 100 g ai/ha
  Observed damage (100=total damage to plant, 0=no damage): 0
[5]; Second season, 150 g ai/ha
  Observed damage (100=total damage to plant, 0=no damage): 0
[5]; Summer season, 50 g ai/ha
  Observed damage (100=total damage to plant, 0=no damage): 0
[5]; Summer season, 75 g ai/ha
  Observed damage (100=total damage to plant, 0=no damage): 0
[5]; Summer season, 100 g ai/ha
  Observed damage (100=total damage to plant, 0=no damage): 0
[5]; Summer season, 150 g ai/ha
  Observed damage (100=total damage to plant, 0=no damage): 0
[6]; 75 g ai/ha
  AMAVI 7DAA Observed: 10
  AMAVI 30 DAA Observed: 13
[6]; 100 g ai/ha
  AMAVI 7DAA Observed: 20
  AMAVI 30 DAA Observed: 20
[6]; 150 g ai/ha
  AMAVI 7DAA Observed: 40
  AMAVI 30 DAA Observed: 40
Eleusine indica (ELEIN)
  Observed damage (100=total damage to plant, 0=no damage): 8
